This note sets out measurements from ChEMBL document CHEMBL1133068, “Novel 2,2-dioxide-4,4-disubstituted-1,3-H-2,1,3-benzothiadiazines as non-nucleoside reverse transcriptase inhibitors” (Bioorg Med Chem Lett, 2000).

A short description of assay [1]: The compound was evaluated for antiviral activity using whole cell assay. In kind it is functional.
For assay [2], the target named is T1, Human immunodeficiency virus type 1 reverse transcriptase (Human immunodeficiency virus 1, UniProt Q72547). Nature of the assay: The compound was evaluated for the inhibition of HIV-1 reverse transcriptase; Inactive.
For assay [3], the target named is T1, Human immunodeficiency virus type 1 reverse transcriptase. The assay is described as follows: The compound was evaluated for the inhibition of HIV-1 reverse transcriptase.
Assay [4] in a line: The compound was evaluated for antiviral activity using whole cell assay; Inactive. In kind it is functional.

Counter-ions that a name gives are not always drawn. Activity calls are given as the source filed them. The calls are words filed in the database; no cut-off is given here.

Take `CCC#CC1(C2CC2)NS(=O)(=O)Nc2ccc(Cl)cc21` (stereo not drawn): the IC90 (in general, the point of the concentration-response curve where the effect stands at 90%) in assay [1] was 611 nM. The IC50 (commonly the midpoint of a concentration-inhibition curve) in assay [2] is “Not Active”.
In assay [1], `CC(C)C1(C#CC2CC2)NS(=O)(=O)Nc2ccc(Cl)cc21` (stereo not drawn) gave an IC90 of 677 nM. Besides, the IC50 entry in assay [2] was “Not Active”.
For `CCC#CC1(C(C)C)NS(=O)(=O)Nc2ccc(Cl)cc21` (stereo not drawn) the same measures were 961 nM and “Not Active”.
In turn, `O=S1(=O)Nc2ccc(Cl)cc2C(C#CC2CC2)(C2CC2)N1` (stereo not drawn) returned an IC90 in assay [1] of 279 nM. Also, in assay [3], the IC50 was determined as 35900 nM.
Take `O=S1(=O)Nc2ccc(Cl)cc2C(C#Cc2ccccn2)(C2CC2)N1` (stereo not drawn): in assay [4], the IC90 entry is “inactive”. The IC50 result in assay [2] is listed as “Not Active”.
The compound `CC(C)C#CC1(C(C)C)NS(=O)(=O)Nc2ccc(Cl)cc21` (stereo not drawn) returned an IC90 in assay [1] of 643 nM. This compound showed an IC50 in assay [3] of 137 nM.
`Cc1ccnc2c1NC(=O)c1cccnc1N2C1CC1` [NEVIRAPINE] returned an IC90 in assay [1] of 37 nM.
Same read-out and setting: the result for `O=C1Nc2ccc(Cl)cc2[C@@](C#CC2CC2)(C(F)(F)F)O1` [EFAVIRENZ] reads 1.7 nM; that for `CC(C)Nc1cccnc1N1CCN(C(=O)c2cc3cc(NS(C)(=O)=O)ccc3[nH]2)CC1` [DELAVIRDINE MESYLATE], 50 nM.
Regarding `O=S1(=O)Nc2ccc(F)c(F)c2C(C#CC2CC2)(C(F)(F)F)N1` (stereo not drawn), the IC90 in assay [1] was found to be 284 nM. Besides, the IC50 in assay [3] amounted to 24700 nM.
In the case of `O=C1Nc2ccc(Cl)cc2[C@@](C#CC2CC2)(C(F)(F)F)N1`, the IC90 in assay [1] was 2 nM. Further, in assay [3], 31 nM corresponded to half-maximal inhibition (IC50).
`CC(C)C#CC1(C2CC2)NS(=O)(=O)Nc2ccc(Cl)cc21` (stereo not drawn): it took 182 nM to reach the 90% level in assay [1] (IC90). In addition, in assay [3], the IC50 was 4630 nM.
With `O=S1(=O)Nc2ccc(Cl)cc2C(C#Cc2ccccc2)(C2CC2)N1` (stereo not drawn), the IC90 result in assay [4] was “inactive”. Besides, the IC50 entry in assay [2] is recorded as “Not Active”.
